Source: US11891601B2, “Method to enhance the transcription regulation of SUPT4H on genes containing repetitive nucleotide sequences” (National Yang-Ming University, priority 2018, dated 2024)

How the values were obtained:
[1] = test system: HD-Drosophila expressing mutant HTT97Q; experiment: Rough eye phenotype in HD-Drosophila (Gmr-HTT97Q); assay type: in vivo, Drosophila melanogaster; conditions: 10 μM 6CR plus 100 μM Tropolone in media
Procedure: The Gmr-ga14-UAS-HTT97Q/cyo line expressing HTT97Q under the control of Gmr-gal4 in compound eyes was provided by MT SU (National Taiwan Normal University, Taipei, Taiwan). Fly stock was maintained and crossed at 25° C. on a standard cornmeal yeast agar medium.
In each compound treatment experiment, 15 Gmr-ga14-UAS-HTT97Q/cyo male flies were crossed with 15 Gmr-ga14-UAS-HTT-97Q/cyo females in a vial containing 10 mL of media supplemented with the testing compound at a final concentration of 10 μM 6CR (Sigma) or/and 100 μM Tropolone (Sigma). 6-chloropurine riboside (6CR) is a chemical reagent that inhibits the activity of SUPT4H by preventing the complex formation of SUPT4H/SUPT5H (Patent No.: US2018/0064744A1). Parent flies were removed after 7 days, and 4-day-old progenies carrying one Gmr-ga14-UAS-HTT97Q allele were collected for eye morphology examination. […] In each treatment group, flies were analyzed and normalized with control flies. […]
(§1) Please refer to FIG. 8. […] After parent fly removal, the 4-day-old progenies carrying one Gmr-ga14-UAS-HTT97Q allele were collected and analyzed for eye morphology. […] 4-day-old progenies as described above were collected and analyzed the levels of mutant HTT by Western blotting. α-tubulin was included and served as a loading control. […]

mutant HTT = experiment: Mutant HTT protein level in HD-Drosophila by Western blotting; assay type: in vivo, Drosophila melanogaster; conditions: 10 μM 6CR plus 100 μM Tropolone in media, fly heads
Procedure: For Drosophila samples, 15 males and 15 females HD flies were collected after each compound treatment. Their heads were isolated and homogenized with 1× sample buffer (50 mM Tris-HCl pH 7.5, 150 mM NaCl, 1% NP-40, 0.1% sodium dodecyl sulfate (SDS), 1% sodium deoxycholate, and blue dye) for protein lysate collection. Equivalent amounts of protein lysates were separated on 12% SDS-polyacrylamide gel, and then transferred to NC membranes (GE Healthcare Life Science). Detection of HTT and α-tubulin protein was performed as described above.
In each compound treatment experiment, 15 Gmr-ga14-UAS-HTT97Q/cyo male flies were crossed with 15 Gmr-ga14-UAS-HTT-97Q/cyo females in a vial containing 10 mL of media supplemented with the testing compound at a final concentration of 10 μM 6CR (Sigma) or/and 100 μM Tropolone (Sigma). […] In each treatment group, flies were analyzed and normalized with control flies. […]
as §1

With O=c1cccccc1O [Tropolone] the “rescue effect of rough eye phenotype by 6CR with co-treatment of Tropolone” value [1] was “greatly improved” and the “level of mutant HTT, 6CR with co-treatment of Tropolone” value (mutant HTT) was “decreased accordingly”.
